Measured values as given in ChEMBL document CHEMBL5052850, “Compounds and methods targeting qsox1” (2021).
Activity calls are given as the source filed them. No cut-off for these calls is given here.

How the values were obtained:
MIA PaCa-2 = assay: Antiinvasive activity against human MIA PaCa-2 cells measured spheroid invasion assay; type: functional, cell-based
[1] = target: T1, Sulfhydryl oxidase 1 (Homo sapiens) (UniProt O00391); assay: Inhibition of QSOX1 (unknown origin) at 6.25 to 50 uM relative to control; details: dose 6.25-50 µM
T1 sequence (whole entry): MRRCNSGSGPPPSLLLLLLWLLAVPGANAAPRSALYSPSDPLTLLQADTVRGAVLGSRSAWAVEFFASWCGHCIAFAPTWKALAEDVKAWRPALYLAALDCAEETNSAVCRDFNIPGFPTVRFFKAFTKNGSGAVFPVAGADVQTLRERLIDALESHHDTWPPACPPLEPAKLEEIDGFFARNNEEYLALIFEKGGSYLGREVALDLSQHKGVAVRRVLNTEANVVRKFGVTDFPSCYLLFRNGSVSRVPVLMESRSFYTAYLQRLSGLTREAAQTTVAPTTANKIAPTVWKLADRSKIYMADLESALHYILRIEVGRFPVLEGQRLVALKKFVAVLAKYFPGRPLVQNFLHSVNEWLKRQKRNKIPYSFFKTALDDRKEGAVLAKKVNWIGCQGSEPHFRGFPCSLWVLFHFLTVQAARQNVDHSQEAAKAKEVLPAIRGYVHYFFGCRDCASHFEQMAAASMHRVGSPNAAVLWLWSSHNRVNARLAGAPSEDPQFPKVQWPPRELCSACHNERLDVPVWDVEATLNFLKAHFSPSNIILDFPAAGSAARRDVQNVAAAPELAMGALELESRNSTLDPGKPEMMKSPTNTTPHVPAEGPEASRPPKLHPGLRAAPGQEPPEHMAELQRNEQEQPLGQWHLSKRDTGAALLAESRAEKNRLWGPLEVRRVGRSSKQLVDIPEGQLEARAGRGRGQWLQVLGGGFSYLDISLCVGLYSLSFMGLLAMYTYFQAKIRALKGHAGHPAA

786-0 [2] = assay: Antitumor activity in human 786-0 cells xenografted immunodeficient mouse assessed as reduction in tumor growth at 14 mg/kg/day, po; type: functional; details: 786-0, po, read-out: TGI
Sulfhydryl oxidase 1 = target: T2, Sulfhydryl oxidase 1 (Homo sapiens, UniProt O00391); assay: Binding affinity towards QSOX1 (unknown origin) measured by microscale thermophoresis assay
T2 sequence (O00391 whole entry): T1 sequence (whole entry)

MDA-MB-231 [3] = assay: Antitumor activity in human MDA-MB-231-Luc cells xenografted immunodeficient mouse assessed as reduction in lung metastasis at 100 mg/kg, po administered for 28 days; type: functional; set-up: scale not given: the % may be the effect or the level left; details: time 28 day
RCJ-41T2 = assay: Antiinvasive activity against human RCJ-41T2 cells at 156.25 to 1250 uM measured spheroid invasion assay; type: functional, cell-based; details: dose 156.25-1250 µM
MDA-MB-231 [4] = assay: Anticancer activity against human MDA-MB-231 cells at 156.25 to 1250 uM assessed as suppression of tumor cell tendrils spreading formation measured by 3D tumor cell spheroid assay; type: functional, cell-based; details: dose 156.25-1250 µM
UOK117 = assay: Antitumor activity in human UOK117 cells xenografted nude mouse assessed as suppression of tumor growth; type: functional, cell-based
786-0 [5] = assay: Antiinvasive activity against human 786-0 cells measured spheroid invasion assay; type: functional, cell-based
MCF-10A = assay: Antiinvasive activity against human MCF-10A cells measured spheroid invasion assay; type: functional, cell-based

inhibition [1]: Active
Kd (Sulfhydryl oxidase 1): 20 µM
SMILES: COc1cccc(C(=O)Nc2ccc(N3CCCC3)cc2)c1
Activity (MIA PaCa-2): Active
inhibition in vivo at 14 mg/kg/day (786-0 [2]): 51%
Activity (MDA-MB-231 [3]): 76%
Activity (RCJ-41T2): Active
Activity (MDA-MB-231 [4]): Active
Activity (UOK117): Active
Activity (786-0 [5]): Active
Activity (MCF-10A): Active
